TGI and GI50 data for 19 molecules are collected here from PubChem BioAssay (NCI).

Among the test systems are SNB-19 CNS; NCI/ADR-RES ovarian; COLO 205 colon; A498 renal; HT29 colon; MDA-MB-231 breast; NCI-H23 lung; K-562 leukemia; SK-MEL-5 melanoma; OVCAR-8 ovarian.
Holding throughout (assay): NCI tumour cell line growth inhibition, 48 h

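The compound was tested at five concentrations on cells cultured in 96-well plates, with a 48-hour exposure period. At the GI50, growth is halved. Definition used: TGI = concentration required for complete inhibition of growth.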

Regarding `CNc1ncnc(Sc2nc(N)nc3nc[nH]c23)c1[N+](=O)[O-]`, the TGI with SNB-19 CNS was over 81.2 µM; with NCI/ADR-RES ovarian, 34.4 µM; with COLO 205 colon, 5.53 µM; in the test on A498 renal it was over 100 µM; in the test with HT29 colon, over 49.5 µM; in the test with MDA-MB-231 breast, 20.6 µM. Besides, the TGI with NCI-H23 lung was found to be 13.9 µM; in the test on K-562 leukemia, 5.66 µM; in the test on SK-MEL-5 melanoma it was 13.4 µM; with OVCAR-8 ovarian it was 18.5 µM.
For the molecule `CCCC1NC(=O)C(CC(C)C)NC(=O)c2cccc(n2)C(=O)NC(CC(C)C)C(=O)NC(CCC)C(=O)NC(C(=O)OC)CCCCNC1=O` (stereo not given), the TGI in the test on SNB-19 CNS was over 100 µM; with NCI/ADR-RES ovarian it was over 100 µM; in the test on COLO 205 colon, over 100 µM; in the test with A498 renal, over 100 µM; in the test with HT29 colon, 94.5 µM; in the test with MDA-MB-231 breast it was 48.9 µM. For the same molecule, the TGI is over 100 µM in the test on NCI-H23 lung, 53.7 µM in the test on K-562 leukemia, over 100 µM in the test on SK-MEL-5 melanoma and over 100 µM with OVCAR-8 ovarian.
As for `CCOC(=O)c1cc2cc(N(C(C)=O)C(C)=O)ccc2s1`, the TGI is over 100 µM in the test on SNB-19 CNS; over 100 µM with NCI/ADR-RES ovarian; over 100 µM in the test with COLO 205 colon; 35.1 µM in the test with A498 renal; 67.9 µM in the test on HT29 colon; 58.7 µM in the test with MDA-MB-231 breast. Besides, the TGI with NCI-H23 lung is over 100 µM; with K-562 leukemia, 87 µM; in the test on SK-MEL-5 melanoma, 65 µM; with OVCAR-8 ovarian, 93.2 µM.
Take `CN(C1=NCCO1)c1cccc2ccccc12`: the TGI with SNB-19 CNS, with NCI/ADR-RES ovarian, with COLO 205 colon, with A498 renal, in the test with HT29 colon and in the test with MDA-MB-231 breast was over 10 µM each time. Besides, the TGI with NCI-H23 lung, with K-562 leukemia, in the test on SK-MEL-5 melanoma and with OVCAR-8 ovarian was over 10 µM in each case.
As to `CCOP(=O)(OCC)C(NC(=O)OCC(Cl)(Cl)Cl)n1nnc(C(=O)OC)c1C(=O)OC` (stereo not given), the TGI in the test with SNB-19 CNS, in the test on NCI/ADR-RES ovarian, in the test on COLO 205 colon, with A498 renal, with HT29 colon and with MDA-MB-231 breast was over 100 µM in each case. The TGI with NCI-H23 lung, in the test with K-562 leukemia, in the test on SK-MEL-5 melanoma and with OVCAR-8 ovarian was over 100 µM each time.
`Clc1ccc(N=C/C=C/Nc2ccc(Cl)cn2)nc1`: the TGI in the test with SNB-19 CNS came to 30.1 µM; with NCI/ADR-RES ovarian, 32.6 µM; with COLO 205 colon, 25.3 µM; in the test on A498 renal, 34.7 µM; with HT29 colon, 22.1 µM; in the test with MDA-MB-231 breast, 16.2 µM. The TGI in the test with NCI-H23 lung turned out to be 32.8 µM; in the test on K-562 leukemia, 23.2 µM; with SK-MEL-5 melanoma, 27.5 µM; with OVCAR-8 ovarian it was 23.3 µM.
`CN(C)CCCNc1c(O)c2c(c(O)c1Cl)C(=O)C=CC2=O`: the TGI is 4.67 µM with SNB-19 CNS; 5.38 µM in the test with NCI/ADR-RES ovarian; 3.07 µM with COLO 205 colon; over 10 µM in the test on A498 renal; 4.27 µM with HT29 colon; 7.77 µM in the test with MDA-MB-231 breast. Also, the TGI in the test on NCI-H23 lung is 3.22 µM; with K-562 leukemia, over 10 µM; with SK-MEL-5 melanoma, 2.82 µM; in the test on OVCAR-8 ovarian, 9.69 µM.
For the molecule `COc1ccc2c(c1)C(N)CC2=O` (stereo not given), the TGI with SNB-19 CNS, in the test on NCI/ADR-RES ovarian, in the test with COLO 205 colon, in the test on A498 renal, with HT29 colon and in the test with MDA-MB-231 breast was over 100 µM each time. In addition, the TGI in the test with NCI-H23 lung, in the test with K-562 leukemia, with SK-MEL-5 melanoma and in the test on OVCAR-8 ovarian was over 100 µM each time.
Consider `CC(=O)N=C(N=Nc1c(O)[nH]c2ccc(C)cc12)NC(C)=O`, for which the TGI in the test on SNB-19 CNS, in the test on NCI/ADR-RES ovarian, with COLO 205 colon, with A498 renal, in the test on HT29 colon and in the test on MDA-MB-231 breast was over 100 µM throughout. Also, the TGI in the test on NCI-H23 lung, with K-562 leukemia, in the test on SK-MEL-5 melanoma and in the test with OVCAR-8 ovarian was over 100 µM each time.
Take `O=C(O)CC(C(=O)O)c1ccccc1[N+](=O)[O-]` (stereo not given): the TGI in the test with SNB-19 CNS, in the test on NCI/ADR-RES ovarian, in the test with COLO 205 colon, in the test with A498 renal, in the test with HT29 colon and in the test on MDA-MB-231 breast was over 100 µM throughout. In addition, the TGI with NCI-H23 lung, in the test on K-562 leukemia, with SK-MEL-5 melanoma and in the test with OVCAR-8 ovarian was over 100 µM in each case.
In the case of `OC1(c2ccccc2)CC2CCC(C1)N2CCc1ccccc1` (stereo not given), the TGI in the test on SNB-19 CNS is over 100 µM; with NCI/ADR-RES ovarian, over 100 µM; with COLO 205 colon, 35.7 µM; with A498 renal, 56.4 µM; in the test on HT29 colon, 79.3 µM; with MDA-MB-231 breast it was over 100 µM. In addition, the TGI in the test on NCI-H23 lung is over 100 µM; with K-562 leukemia it was over 100 µM; with SK-MEL-5 melanoma, 28.6 µM; with OVCAR-8 ovarian, over 100 µM.
With `Cc1ccc(/C=C2\CN(C)CC3=C2OC(N)=C(C#N)C3c2ccc(C)cc2)cc1` (stereo not given), the TGI in the test with SNB-19 CNS is 73.4 µM; with NCI/ADR-RES ovarian it was over 100 µM; in the test on COLO 205 colon it was over 69.3 µM; in the test on A498 renal it was 45.2 µM; with HT29 colon, 34.2 µM; in the test on MDA-MB-231 breast, over 63.7 µM. The TGI is 62.6 µM with NCI-H23 lung, over 100 µM in the test on K-562 leukemia, over 100 µM in the test on SK-MEL-5 melanoma and over 92 µM in the test with OVCAR-8 ovarian.
For the molecule `CCc1ccc(-c2nnc(COc3ccc(-c4nc5ccc(C)cc5[nH]4)cc3OC)o2)cc1`, the GI50 was 4.63 µM in the test on SNB-19 CNS; 3.28 µM in the test with NCI/ADR-RES ovarian; 8.39 µM in the test with COLO 205 colon; 1.97 µM with A498 renal; 3.66 µM in the test with HT29 colon; 2.05 µM in the test with MDA-MB-231 breast. Moreover, the GI50 in the test with NCI-H23 lung was 4.52 µM; with K-562 leukemia, 3.12 µM; in the test on SK-MEL-5 melanoma, 1.97 µM; in the test on OVCAR-8 ovarian it was 5.08 µM. In addition, the TGI was over 100 µM in the test with SNB-19 CNS; 37.5 µM in the test with NCI/ADR-RES ovarian; 96 µM in the test with COLO 205 colon; 4.72 µM with A498 renal; over 100 µM in the test with HT29 colon; 4.87 µM with MDA-MB-231 breast. Also, the TGI was 54.4 µM with NCI-H23 lung, over 100 µM with K-562 leukemia, 4.09 µM in the test with SK-MEL-5 melanoma and over 100 µM in the test on OVCAR-8 ovarian.
On to `CCOc1c2ccsc2c(OCC)c2ccsc12`, for which the TGI is over 100 µM with SNB-19 CNS; over 100 µM in the test with NCI/ADR-RES ovarian; over 41.1 µM in the test with COLO 205 colon; over 100 µM with A498 renal; over 36 µM with HT29 colon; over 100 µM with MDA-MB-231 breast. For the same molecule, the TGI in the test on NCI-H23 lung is over 78 µM; in the test on K-562 leukemia, over 100 µM; in the test with SK-MEL-5 melanoma, over 29.5 µM; with OVCAR-8 ovarian it was over 100 µM.
Consider `CCOC(=O)c1c(C)n(Cc2ccccc2)c(=O)c2ccccc2c(=O)c2c(=O)ccc(=O)c1=2`, for which the TGI in the test with SNB-19 CNS, in the test on NCI/ADR-RES ovarian, in the test with COLO 205 colon, with A498 renal, with HT29 colon and in the test on MDA-MB-231 breast was over 100 µM each time. Besides, the TGI with NCI-H23 lung, with K-562 leukemia, in the test on SK-MEL-5 melanoma and in the test on OVCAR-8 ovarian was over 100 µM throughout.
`COc1cc(NS(C)(=O)=O)ccc1NCc1cnc2ccc3[nH]c(C)ccc3c12`: the TGI with SNB-19 CNS is over 100 µM; with NCI/ADR-RES ovarian, over 100 µM; in the test with COLO 205 colon, over 100 µM; with A498 renal, 42 µM; in the test with HT29 colon, over 100 µM; in the test with MDA-MB-231 breast, over 100 µM. The TGI in the test on NCI-H23 lung was over 100 µM; in the test on K-562 leukemia it was 62.2 µM; with SK-MEL-5 melanoma it was over 100 µM; in the test with OVCAR-8 ovarian, over 100 µM.
Take `CN1CCCN2CCN(C)CCN(CC1)CC2`: the TGI with SNB-19 CNS, in the test with NCI/ADR-RES ovarian, with COLO 205 colon, in the test with A498 renal, in the test with HT29 colon and in the test with MDA-MB-231 breast was over 100 µM throughout. Further, the TGI with NCI-H23 lung, in the test with K-562 leukemia, in the test with SK-MEL-5 melanoma and with OVCAR-8 ovarian was over 100 µM each time.
Regarding `CC(=O)ON(OC(C)=O)c1ccc(C)cc1`, the TGI in the test on SNB-19 CNS, in the test with NCI/ADR-RES ovarian, in the test on COLO 205 colon, in the test on A498 renal, in the test with HT29 colon and in the test on MDA-MB-231 breast was over 100 µM each time. Also, the TGI with NCI-H23 lung, in the test with K-562 leukemia, in the test with SK-MEL-5 melanoma and with OVCAR-8 ovarian was over 100 µM each time.
For `Cc1ccc2c(c1)SSSSS2`, the TGI in the test with SNB-19 CNS was determined as 48 µM; in the test with NCI/ADR-RES ovarian, 66.7 µM; in the test on COLO 205 colon, 97.9 µM; in the test on A498 renal it was 35.1 µM; in the test with HT29 colon, 70.6 µM; in the test on MDA-MB-231 breast, 59.1 µM. The TGI in the test with NCI-H23 lung is 43 µM; in the test on K-562 leukemia, over 100 µM; in the test on SK-MEL-5 melanoma it was 35.8 µM; with OVCAR-8 ovarian, 53.7 µM.
